Data: patent US9551722B2, “Amyloid binding agents” (The Regents of the University of California, priority 2009, dated 2017)
Read-outs that look alike come from different tables or passages of the source.

Legend:
aggregated Aβ42 peptides = molecular target: T1, aggregated Aβ42 peptides (Homo sapiens, UniProt P05067); test: Apparent binding constant (Kd) of probes 27-31, 33 by fluorescence intensity vs concentration; details: probe 1.25, 2.5, 5.0, 10 μM in nano-pure water, 5 μM pre-aggregated Aβ42
T1 construct: preaggregated Aβ(1-42) peptides
T1 sequence (P05067 672-713 limits assumed): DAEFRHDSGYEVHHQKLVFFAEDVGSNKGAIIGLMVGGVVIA
Method: We also measured the apparent binding constants (Kd) of the probes to aggregated Aβ42 peptides. The fluorescent intensity of each probe was measured in concentrations of 1.25, 2.5, 5.0 and 10 μM in nano-pure water, mixed with 5 μM of the pre-aggregated Aβ42 peptides. Zhao, X.; Yang, J., ACS Chem. Neurosc. 1, (10), 655-660. […] On the other hand, a decrease of the Kd value was observed upon chemically altering the electron donor of the ANCA scaffold. […] FIGS. 10A-F show plots of the fluorescence intensity (at λ=525 nm) of compounds 27-31 and […], respectively, as a function of the concentration in the presence of aggregated Aβ42 peptides (5 μM) in solution.

[1] = molecular target: T2, aggregated Aβ(1-42) peptides (Homo sapiens, UniProt P05067); test: Fluorescence of probes 27-31, 33 before and after mixing with aggregated Aβ42; assay type: binding; details: 4 μM probe; for Em. max (nm) after / Exc. max (nm) after / Fold increase (emission intensity after binding): 5 μM aggregated Aβ(1-42); for Em. max (nm) before / Exc. max (nm) before: nano-pure water (5% DMSO), without Aβ
T2 construct: preaggregated Aβ(1-42) peptides
T2 sequence (P05067 672-713 limits assumed): as above
Method: Aggregated Aβ peptide was prepared by dissolving Aβ(1-42) in PBS pH 7.4 to a final concentration of 100 μM. This solution was magnetically stirred at 1200 rpm for 3 days at room temperature. The 100 μM Aβ(1-42) stock solution in PBS was aliquoted and frozen at −10° C. for up to 4 weeks without noticeable change in its property. 15 μL of the pre-aggregated Aβ(1-42) was added to 285 μL of the probe (5% DMSO in nano-pure water) to attain a final concentration of 5 μM Aβ(1-42) and 4 μM of the probe. The solution was transferred to a […] cuvette and the fluorescent measured. FIGS. 9A-F show fluorescence excitation spectra of Cmpds 27-31 and 33, respectively.
LeVine III, H., Protein Sci. 1993, 2, (3), 404-410. Along these lines, we compared the fluorescent properties of 27-31 or 33 in aqueous solution with or without the presence of aggregated Aβ42 peptides. Specifically, we measured the fluorescent properties of each dye at 4 μM concentration in nano pure water, before and after mixing with aggregated Aβ42 peptide (final concentration peptide=5 μM). As it is shown in table 5, in all cases we observed a significant increase (3 to 9-fold) in the intensity of the emission spectra of the probes upon association with the aggregated amyloid peptides. This intensity increase was also accompanied with a blue shift in the emission spectra of around 5-50 nm. […] FIG. 9C provides a representative example of the fluorescent properties of compound 29.

[2] = test system: amyloid plaques in human tissue from AD cases; test: Fluorescence imaging of amyloid plaques in tissue sections; details: frozen AD tissue sections, probe solution 30 min, washed with water
Method: FIGS. 11A-F depict fluorescence images of amyloid plaques in human tissue from AD cases. After the frozen tissue was sectioned and mounted to a glass slide, the tissue was exposed to a solution containing a fluorescent probe for 30 min. The sample was washed with water to eliminate non-specific staining of the tissue, and imaged using an inverted epi-fluorescence microscope. The images reveal the location of plaques that were stained with A) compound 27, B) compound 28, C) compound 29, D) compound 30, E) compound 31, or F) compound 33.

Row | Structure (SMILES) | Kd (aggregated Aβ42 peptides) | Kd (aggregated Aβ42 peptides; read-out: Kd) | Em. max (nm) after [1] | Exc. max (nm) after [1] | Fold increase (emission intensity after binding) [1] | Em. max (nm) before [1] | Exc. max (nm) before [1] | Staining of amyloid plaques (fluorescence image) [2]
1 | COCCOCCOCCOC(=O)/C(C#N)=C/c1ccc2cc(N3CCCCC3)ccc2c1 [Compound 27, (E)-2-(2-(2-methoxyethoxyl)ethoxy)ethyl 2-cyano-3-(2-(piperidin-1-yl)napthalen-6-yl)acrylate] | highest affinity | 1.4 µM | – | – | – | – | – | –
2 | N#C/C(=C\c1ccc2cc(N3CCCCC3)ccc2c1)C(=O)OCC(O)CO (stereo not drawn) [Compound 33, (E)-2,3-dihydroxypropyl 2-cyano-3-(2-(piperidin-1-yl)naphthalene-6-yl)acrylate] | highest affinity | 1.6 µM | 535 nm | 410 nm | 7.2 fold | 540 nm | 410 nm | stained
3 | COCCOCCOCCOCCOC(=O)/C(C#N)=C/c1ccc2cc(N3CCCCC3)ccc2c1 [Compound 31, (E)-2-(2-(2-(2-methoxyethoxyl)ethoxy)ethoxy)ethyl 2-cyano-3-(2-(piperidin-1-yl)napthalen-6-yl) acrylate] | highest affinity | 1.6 µM | – | – | – | – | – | –
4 | COCCOCCOCCOC(=O)/C(C#N)=C/c1ccc2cc(NCCN3CCOCC3)ccc2c1 [Compound 30, (E)-2-(2-(2-methoxyethoxyl)ethoxy)ethyl 3-(2-(2-morpholinoethylamino)naphthalen-6-yl)-2-cyano acrylate] | – | 6.7 µM | 540 nm | 430 nm | 2.9 fold | 570 nm | 430 nm | stained
5 | COCCOCCOCCOC(=O)/C(C#N)=C/c1ccc2cc(N3CCOCC3)ccc2c1 [Compound 29, (E)-2-(2-(2-methoxyethoxyl)ethoxy)ethyl 2-cyano-3-(2-morpholinonapthalen-6-yl)acrylate] | – | 13.8 µM | 525 nm | 380 nm | 5.1 fold | 530 nm | 400 nm | stained
6 | COCCOCCOCCOC(=O)/C(C#N)=C/c1ccc2cc(N3CCN(C)CC3)ccc2c1 [Compound 28, (E)-2-(2-(2-methoxyethoxyl)ethoxy)ethyl 2-cyano-3-(2-(4-methylpiperazin-1-yl)napthalen-6-yl) acrylate] | – | 4.6 µM | 530 nm | 385 nm | 4.9 fold | 580 nm | 400 nm | stained
